Measured values as given in ChEMBL document CHEMBL1145629, “Design of (N)-methanocarba adenosine 5'-uronamides as species-independent A3 receptor-selective agonists” (Bioorg Med Chem Lett, 2008).

Assays:
Adenosine receptor A2b [1] = target: T1, Adenosine receptor A2b (Homo sapiens, UniProt P29275); experiment: Activation of human adenosine A2B receptor
T1 sequence (P29275 whole entry): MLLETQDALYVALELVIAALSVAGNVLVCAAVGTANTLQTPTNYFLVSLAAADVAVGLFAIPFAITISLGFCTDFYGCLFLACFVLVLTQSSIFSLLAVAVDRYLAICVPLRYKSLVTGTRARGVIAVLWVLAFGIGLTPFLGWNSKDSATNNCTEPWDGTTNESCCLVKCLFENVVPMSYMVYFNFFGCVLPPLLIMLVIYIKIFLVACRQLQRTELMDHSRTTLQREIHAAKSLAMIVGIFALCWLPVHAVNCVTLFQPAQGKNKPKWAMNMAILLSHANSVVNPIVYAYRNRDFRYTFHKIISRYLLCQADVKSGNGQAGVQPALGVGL

Adenosine receptor A2a [2] = target: Adenosine receptor A2a (Mus musculus, UniProt Q60613); experiment: Displacement of [3H]2-[p-(2-carboxyethyl)phenyl-ethylamino]-5'-N-ethylcarboxamidoadenosine from mouse recombinant adenosine A2A receptor expressed in HEK293 cells; format: cell-based
Chain of Adenosine receptor A2a (Mus musculus, UniProt Q60613) (Q60613 whole entry): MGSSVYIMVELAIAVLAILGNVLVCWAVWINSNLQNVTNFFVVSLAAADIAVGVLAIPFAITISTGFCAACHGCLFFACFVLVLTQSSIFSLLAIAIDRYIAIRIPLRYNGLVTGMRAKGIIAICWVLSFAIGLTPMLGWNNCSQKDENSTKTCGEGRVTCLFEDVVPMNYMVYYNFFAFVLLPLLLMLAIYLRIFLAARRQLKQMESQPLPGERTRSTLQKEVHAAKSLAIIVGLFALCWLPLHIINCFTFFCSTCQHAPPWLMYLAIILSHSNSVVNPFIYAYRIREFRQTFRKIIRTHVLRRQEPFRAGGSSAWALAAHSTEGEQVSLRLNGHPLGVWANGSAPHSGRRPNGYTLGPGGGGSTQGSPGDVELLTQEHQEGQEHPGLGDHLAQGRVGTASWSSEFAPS

Adenosine receptor A3 [3] = target: T2, Adenosine receptor A3 (Homo sapiens, UniProt P0DMS8); experiment: Displacement of radioligand from human adenosine A3 receptor expressed in CHO cells; format: cell-based
T2 sequence (P0DMS8 whole entry): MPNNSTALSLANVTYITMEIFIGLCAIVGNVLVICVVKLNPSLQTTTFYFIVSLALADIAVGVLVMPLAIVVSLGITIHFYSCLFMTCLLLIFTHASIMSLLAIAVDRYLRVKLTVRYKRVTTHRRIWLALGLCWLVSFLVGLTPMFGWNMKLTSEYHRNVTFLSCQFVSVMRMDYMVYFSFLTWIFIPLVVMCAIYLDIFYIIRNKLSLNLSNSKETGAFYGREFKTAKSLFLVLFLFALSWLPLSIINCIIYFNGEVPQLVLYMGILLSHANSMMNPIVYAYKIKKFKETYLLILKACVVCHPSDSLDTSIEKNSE

Adenosine receptor A2a [4] = target: T3, Adenosine receptor A2a (Homo sapiens, UniProt P29274); experiment: Displacement of radioligand from human A2A adenosine receptor expressed in HEK293 cells at 10 uM; format: cell-based
T3 sequence (P29274 whole entry): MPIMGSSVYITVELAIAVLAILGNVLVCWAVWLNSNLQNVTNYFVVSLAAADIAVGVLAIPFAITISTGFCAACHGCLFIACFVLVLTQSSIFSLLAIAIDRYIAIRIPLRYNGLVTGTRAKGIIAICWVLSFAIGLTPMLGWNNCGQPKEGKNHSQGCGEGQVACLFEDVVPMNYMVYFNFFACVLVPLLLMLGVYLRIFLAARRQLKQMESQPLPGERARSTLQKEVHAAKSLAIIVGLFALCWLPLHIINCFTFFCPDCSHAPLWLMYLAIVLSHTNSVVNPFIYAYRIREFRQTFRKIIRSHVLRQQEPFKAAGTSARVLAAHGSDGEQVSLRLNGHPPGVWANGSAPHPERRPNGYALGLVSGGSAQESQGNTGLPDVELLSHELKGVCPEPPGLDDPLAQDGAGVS

[5] = target: Adenosine receptor A2a (Mus musculus) (UniProt Q60613); experiment: Displacement of [3H]2-[p-(2-carboxyethyl)phenyl-ethylamino]-5'-N-ethylcarbox-amidoadenosine from mouse recombinant adenosine A2A receptor expressed in HEK293 at 100 uM; format: cell-based
Chain of Adenosine receptor A2a (Mus musculus) (Q60613 whole entry): as the sequence (Q60613 whole entry) above

Mus musculus = organism: Mus musculus; experiment: Selectivity for mouse adenosine A3 receptor over mouse adenosine A1 receptor
[6] = target: Adenosine receptors; A1 & A3 (Homo sapiens) (UniProt P30542+P0DMS8); experiment: Selectivity for human adenosine A3 receptor over human adenosine A1 receptor
Adenosine receptor A1 [7] = target: T4, Adenosine receptor A1 (Mus musculus, UniProt Q60612); experiment: Displacement of [125I]N6-(4-amino-3-iodobenzyl)adenosine-5'-N-methyl-uronamide from mouse recombinant adenosine A1 receptor expressed in HEK293 cells; format: cell-based
T4 sequence (Q60612 whole entry): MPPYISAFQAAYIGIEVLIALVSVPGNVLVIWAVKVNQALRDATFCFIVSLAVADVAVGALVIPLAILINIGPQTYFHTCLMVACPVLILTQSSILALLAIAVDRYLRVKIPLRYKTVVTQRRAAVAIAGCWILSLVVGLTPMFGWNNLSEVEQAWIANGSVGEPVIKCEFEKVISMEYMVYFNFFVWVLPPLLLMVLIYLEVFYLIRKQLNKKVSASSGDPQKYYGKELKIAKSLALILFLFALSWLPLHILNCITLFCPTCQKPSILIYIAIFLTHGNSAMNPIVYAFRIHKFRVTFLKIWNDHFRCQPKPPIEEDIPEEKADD

Adenosine receptor A3 [8] = target: T5, Adenosine receptor A3 (Mus musculus, UniProt Q61618); experiment: Displacement of [125I]N6-(-amino-3-iodobenzyl)adenosine-5'-N-methyl-uronamide from mouse recombinant adenosine A3 receptor expressed in HEK293 cells; format: cell-based
T5 sequence (Q61618 whole entry): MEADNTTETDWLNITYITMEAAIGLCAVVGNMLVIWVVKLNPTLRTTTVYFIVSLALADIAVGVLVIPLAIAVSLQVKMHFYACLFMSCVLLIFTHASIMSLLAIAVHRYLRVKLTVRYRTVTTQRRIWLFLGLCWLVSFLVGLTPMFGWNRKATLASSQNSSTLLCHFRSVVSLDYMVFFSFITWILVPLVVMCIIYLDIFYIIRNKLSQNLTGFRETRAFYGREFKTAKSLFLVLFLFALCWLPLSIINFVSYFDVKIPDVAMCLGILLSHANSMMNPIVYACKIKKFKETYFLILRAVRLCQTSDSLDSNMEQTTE

Adenosine receptor A1 [9] = target: T6, Adenosine receptor A1 (Homo sapiens, UniProt P30542); experiment: Displacement of radioligand from human adenosine A1 receptor expressed in CHO cells; format: cell-based
T6 sequence (P30542 whole entry): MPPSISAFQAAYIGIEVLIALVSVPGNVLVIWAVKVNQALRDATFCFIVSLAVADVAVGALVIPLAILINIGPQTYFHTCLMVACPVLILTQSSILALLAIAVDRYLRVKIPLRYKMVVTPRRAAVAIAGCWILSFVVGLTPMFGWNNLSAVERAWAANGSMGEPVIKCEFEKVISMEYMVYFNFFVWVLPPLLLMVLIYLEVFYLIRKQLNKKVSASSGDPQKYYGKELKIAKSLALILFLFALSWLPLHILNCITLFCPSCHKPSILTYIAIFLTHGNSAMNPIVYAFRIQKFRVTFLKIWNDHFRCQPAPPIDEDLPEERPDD

Adenosine receptor A2a [10] = target: T3, Adenosine receptor A2a; experiment: Displacement of radioligand from human adenosine A2A receptor expressed in HEK293 cells; format: cell-based
Adenosine receptor A2a [11] = target: Adenosine receptor A2a (Rattus norvegicus, UniProt P30543); experiment: Displacement of radioligand from rat adenosine A2A receptor
Chain of Adenosine receptor A2a (Rattus norvegicus, UniProt P30543) (P30543 whole entry): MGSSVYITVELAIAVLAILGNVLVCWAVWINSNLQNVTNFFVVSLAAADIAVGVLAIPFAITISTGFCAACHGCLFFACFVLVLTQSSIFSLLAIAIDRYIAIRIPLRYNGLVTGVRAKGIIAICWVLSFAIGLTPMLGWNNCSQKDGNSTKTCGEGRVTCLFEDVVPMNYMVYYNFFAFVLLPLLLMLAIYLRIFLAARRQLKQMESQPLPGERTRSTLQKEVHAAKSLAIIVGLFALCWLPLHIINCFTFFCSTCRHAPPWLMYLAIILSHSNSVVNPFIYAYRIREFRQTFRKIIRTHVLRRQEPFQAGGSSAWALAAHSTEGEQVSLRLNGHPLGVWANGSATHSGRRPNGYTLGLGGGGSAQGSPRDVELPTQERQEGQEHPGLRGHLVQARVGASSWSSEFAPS

Adenosine receptor A2b [12] = target: T7, Adenosine receptor A2b (Mus musculus, UniProt Q60614); experiment: Activation of mouse adenosine A2B receptor
T7 sequence (Q60614 whole entry): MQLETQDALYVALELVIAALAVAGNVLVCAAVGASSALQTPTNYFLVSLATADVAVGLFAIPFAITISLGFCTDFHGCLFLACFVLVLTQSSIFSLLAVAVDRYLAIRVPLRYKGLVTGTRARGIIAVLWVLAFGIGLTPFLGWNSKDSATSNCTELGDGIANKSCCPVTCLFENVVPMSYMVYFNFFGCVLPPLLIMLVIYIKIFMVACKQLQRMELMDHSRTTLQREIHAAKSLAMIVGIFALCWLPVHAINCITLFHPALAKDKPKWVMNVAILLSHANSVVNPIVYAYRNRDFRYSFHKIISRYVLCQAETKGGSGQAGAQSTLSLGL

SMILES	Ki (Adenosine receptor A2a [2]) [nM]	inhibition (Adenosine receptor A2a [4]) [%]	inhibition [5] [%]	Ki (Adenosine receptor A1 [7]) [nM]	Ki (Adenosine receptor A3 [8]) [nM]	Ratio Ki (Mus musculus)	Ratio Ki [6]	other results
CNC(=O)[C@@]12C[C@@H]1[C@@H](n1cnc3c(NOC)nc(Cl)nc31)[C@H](O)[C@@H]2O		2	2	1160	877	1.3	1.8	Ki (Adenosine receptor A3 [3]): 149 nM; Ki (Adenosine receptor A1 [9]): 265 nM
CNC(=O)C12C[C@@H]1[C@@H](n1cnc3c(NCc4cccc(C#CCO)c4)nc(Cl)nc31)[C@H](O)[C@@H]2O (single isomer, unassigned)		56	11					
CNC(=O)C12C[C@@H]1[C@@H](n1cnc3c(NCc4cccc(Cl)c4)nc(SC)nc31)[C@H](O)[C@@H]2O (single isomer, unassigned)			32	98.9	1.19	83	410	Ki (Adenosine receptor A2a [10]): 10000 nM
CNC(=O)[C@@]12C[C@@H]1[C@@H](n1cnc3c(NCc4cccc(Cl)c4)nc(C#CCCCC(=O)OC)nc31)[C@H](O)[C@@H]2O		49	50	1340	4.65			Ki (Adenosine receptor A1 [9]): 482 nM
CNC(=O)[C@@]12C[C@@H]1[C@@H](n1cnc3c(NCc4cccc(C#CCCCC(=O)NCCNC(C)=O)c4)nc(Cl)nc31)[C@H](O)[C@@H]2O		80	68					
CNC(=O)[C@@]12C[C@@H]1[C@@H](n1cnc3c(NCc4cccc(Cl)c4)nc(C#CCCCC(=O)NCCN)nc31)[C@H](O)[C@@H]2O		81	31	546	8.6	64	209	Ki (Adenosine receptor A3 [3]): 2.17 nM; Ki (Adenosine receptor A1 [9]): 454 nM
CNC(=O)[C@H]1O[C@@H](n2cnc3c(NCc4cccc(I)c4)nc(Cl)nc32)[C@H](O)[C@@H]1O [NAMODENOSON]	10000			35				EC50 (Adenosine receptor A2b [12]): ≥ 10000 nM
CNC(=O)[C@@]12C[C@@H]1[C@@H](n1cnc3c(NCc4cccc(Cl)c4)nc(C#C[Si](C)(C)C)nc31)[C@H](O)[C@@H]2O		52	20	159	4.46	35.6	160	Ki (Adenosine receptor A3 [3]): 0.98 nM; Ki (Adenosine receptor A1 [9]): 160 nM
CNC(=O)C12C[C@@H]1[C@@H](n1cnc3c(NCC(c4ccccc4)c4ccccc4)nc(Cl)nc31)[C@H](O)[C@@H]2O (single isomer, unassigned)	1810			6.83	1.67	4.1	1900	EC50 (Adenosine receptor A2b [1]): ≥ 10000 nM
CNC(=O)[C@H]1O[C@@H](n2cnc3c(NCc4cccc(I)c4)ncnc32)[C@H](O)[C@@H]1O [IB-MECA]	1000			5.9	0.087			EC50 (Adenosine receptor A2b [12]): ≥ 10000 nM

More lines, main results first:

Ki (Adenosine receptor A2a [2]) [nM]	inhibition (Adenosine receptor A2a [4]) [%]	inhibition [5] [%]	Ki (Adenosine receptor A1 [7]) [nM]	Ki (Adenosine receptor A3 [8]) [nM]	SMILES	Ratio Ki (Mus musculus)	Ratio Ki [6]	other results
38200					CNC(=O)C12C[C@@H]1[C@@H](n1cnc3c(NC4CC4c4ccccc4)nc(Cl)nc31)[C@H](O)[C@@H]2O (single isomer, unassigned)			EC50 (Adenosine receptor A2b [1]): ≥ 10000 nM
	48	41			C#Cc1nc(NCc2cccc(Cl)c2)c2ncn([C@H]3[C@H](O)[C@H](O)[C@]4(C(=O)NC)C[C@H]34)c2n1			
5350			7.32	0.8	CNC(=O)[C@@]12C[C@@H]1[C@@H](n1cnc3c(NCc4cccc(I)c4)nc(Cl)nc31)[C@H](O)[C@@H]2O			EC50 (Adenosine receptor A2b [1]): ≥ 10000 nM
		40			CNC(=O)C12C[C@@H]1[C@@H](n1cnc3c(NCc4cccc(Cl)c4)nc(I)nc31)[C@H](O)[C@@H]2O (single isomer, unassigned)			Ki (Adenosine receptor A2a [10]): > 10000 nM
	80	42			CCCC#Cc1nc(NCc2cccc(Cl)c2)c2ncn([C@H]3[C@H](O)[C@H](O)[C@]4(C(=O)NC)C[C@H]34)c2n1			
	35	14			CNC(=O)[C@@]12C[C@@H]1[C@@H](n1cnc3c(NCc4cc(OC)ccc4OC)nc(I)nc31)[C@H](O)[C@@H]2O			
44700			29	1.72	CNC(=O)C12C[C@@H]1[C@@H](n1cnc3c(NCc4cc(OC)ccc4OC)nc(Cl)nc31)[C@H](O)[C@@H]2O (single isomer, unassigned)	17	1100	EC50 (Adenosine receptor A2b [1]): ≥ 10000 nM; Ki (Adenosine receptor A2a [10]): 10000 nM
	6		55.3	49	CNC(=O)[C@@]12C[C@@H]1[C@@H](n1cnc3c(NC)nc(Cl)nc31)[C@H](O)[C@@H]2O			Ki (Adenosine receptor A2a [11]): > 10000 nM
	14	5			CNC(=O)[C@@]12C[C@@H]1[C@@H](n1cnc3c(NCc4cccc(C#CCCCC(=O)O)c4)nc(Cl)nc31)[C@H](O)[C@@H]2O			
	43	8			CNC(=O)[C@@]12C[C@@H]1[C@@H](n1cnc3c(NCc4cccc(Cl)c4)nc(C#CCCCC(=O)O)nc31)[C@H](O)[C@@H]2O			
6390			8.79	0.9	CNC(=O)C12C[C@@H]1[C@@H](n1cnc3c(NCc4cccc(Br)c4)nc(Cl)nc31)[C@H](O)[C@@H]2O (single isomer, unassigned)	9.8	710	EC50 (Adenosine receptor A2b [1]): ≥ 10000 nM
10400			15.3	1.49	CNC(=O)[C@@]12C[C@@H]1[C@@H](n1cnc3c(NCc4cccc(Cl)c4)nc(Cl)nc31)[C@H](O)[C@@H]2O			EC50 (Adenosine receptor A2b [1]): ≥ 10000 nM
	58	39	151	11.9	CNC(=O)[C@@]12C[C@@H]1[C@@H](n1cnc3c(NCc4cccc(C#CCCCC(=O)NCCN)c4)nc(Cl)nc31)[C@H](O)[C@@H]2O	13	52	Ki (Adenosine receptor A3 [3]): 5.21 nM; Ki (Adenosine receptor A1 [9]): 271 nM
